PubChem BioAssay (NCI)
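Protocol summary: plate cells (96-well), add compound at 5 concentrations, incubate 48 h, interpolate endpoints linearly. At the GI50, growth is halved. At the TGI there is no net growth.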

Assays:
Assay in all cases: DTP human tumour cell line panel, 48 h
MALME-3M melanoma = tested on: MALME-3M melanoma
CCRF-CEM leukemia = tested on: CCRF-CEM leukemia
SF-539 CNS = tested on: SF-539 CNS
A498 renal = tested on: A498 renal
U251 CNS = tested on: U251 CNS
UO-31 renal = tested on: UO-31 renal
RXF 393 renal = tested on: RXF 393 renal
IGROV1 ovarian = tested on: IGROV1 ovarian
NCI-H460 lung = tested on: NCI-H460 lung
SNB-75 CNS = tested on: SNB-75 CNS
A549 NSCLC = tested on: A549 NSCLC
HT29 colon = tested on: HT29 colon
CAKI-1 renal = tested on: CAKI-1 renal
HCT-15 colon = tested on: HCT-15 colon
HL-60(TB) leukemia = tested on: HL-60(TB) leukemia
NCI-H226 lung = tested on: NCI-H226 lung
HOP-62 NSCLC = tested on: HOP-62 NSCLC
UACC-62 melanoma = tested on: UACC-62 melanoma
OVCAR-8 ovarian = tested on: OVCAR-8 ovarian

Row | Compound | TGI (MALME-3M melanoma) [µM] | TGI (CCRF-CEM leukemia) [µM] | TGI (SF-539 CNS) [µM] | TGI (A498 renal) [µM] | TGI (U251 CNS) [µM] | TGI (UO-31 renal) [µM] | TGI (RXF 393 renal) [µM] | TGI (IGROV1 ovarian) [µM] | TGI (NCI-H460 lung) [µM] | TGI (SNB-75 CNS) [µM] | TGI (A549 NSCLC) [µM] | TGI (HT29 colon) [µM] | TGI (CAKI-1 renal) [µM] | TGI (HCT-15 colon) [µM] | TGI (HL-60(TB) leukemia) [µM] | TGI (NCI-H226 lung) [µM] | TGI (HOP-62 NSCLC) [µM] | TGI (UACC-62 melanoma) [µM] | TGI (OVCAR-8 ovarian) [µM] | GI50 (HL-60(TB) leukemia) [nM]
1 | CC(C(=O)O)c1cnn(-c2ccccc2)c1-n1cccc1 (centres undefined) | > 100 | > 100 | > 100 | > 100 | > 100 | > 100 | > 100 | > 100 | > 100 | > 100 | > 100 | > 100 | > 100 | > 100 | > 100 | > 100 | > 100 | > 100 | > 100 | 
2 | Cc1cc(NS(=O)(=O)c2ccc(N=Nc3c(O)c(C(=O)O)cc4ccccc34)cc2)nc(C)n1 | > 100 | > 100 | > 100 |  | > 100 | > 100 | > 100 | > 100 | > 100 | > 100 | > 100 | > 100 | > 100 | > 100 | > 100 | > 100 | > 100 | > 100 | > 100 | 
3 | CN(CCCNc1ccc2ncn3c4ccccc4c(=O)c1c23)CCCN1C(=O)c2cccc3cc([N+](=O)[O-])cc(c23)C1=O |  | 0.973 | 0.149 | 4.53 | 0.133 | 2.26 | 2.14 | 1.48 | 0.0224 | 1.81 | 0.126 | 0.0155 | 2 | 0.326 |  | 1.55 | 2.15 |  | 1.86 | 191
4 | CC[C@]12C=CCN3CC[C@@]4(c5ccc(OC)cc5N(C)[C@H]4[C@@](O)(C(=O)OC)[C@@H]1OC(C)=O)[C@@H]32 | > 200 | > 200 | > 200 | > 200 | > 200 | > 92.8 | > 200 | > 200 | > 200 | > 200 | > 200 | > 200 | > 200 | > 63.2 | > 200 | > 200 | > 200 | > 200 | > 11.2 | 
5 | C=CCNc1ccc(C)cc1 |  | > 100 |  | 30.7 | > 100 | > 100 | > 100 |  | > 100 | > 100 | > 100 | > 100 |  | > 100 |  | > 100 |  |  | > 100 | 
6 | O=c1c2ccccc2nnn1-c1n[nH]c2ccccc12 | > 100 | > 100 | > 100 | > 100 | > 100 | > 100 | > 100 | > 100 | > 100 | > 100 | > 100 | > 100 | > 100 | > 100 |  |  | > 100 | > 100 |  | 
7 | COC(=O)C1(c2ccc(N(C)C)cc2OC)CCCN(C(=O)Oc2ccccc2[N+](=O)[O-])CCc2c1[nH]c1ccccc21 (centres undefined) | > 100 |  | > 100 | > 100 | > 100 | > 100 | > 100 | > 100 | > 100 | > 100 | > 100 | > 100 | > 100 |  | > 100 | > 100 | > 100 | > 100 | > 100 | 
8 | CC(=O)OC[C@H]1[C@@H]2C(CC[C@]13CO3)OC(=O)CC(C)[C@]2(C)CCc1ccoc1 (some centres undefined) | > 100 | > 100 | > 100 | > 100 | > 100 | > 100 | > 100 | > 100 | > 100 |  | > 100 | > 100 | > 100 | > 100 | > 100 | > 100 | > 100 | > 100 | > 100 | 
9 | C[N+](C)(N)CCC[N+](C)(C)N | > 100 | > 100 | > 100 | > 100 | > 100 | > 100 | > 100 | > 100 | > 100 | > 100 | > 100 | > 100 | > 100 | > 100 | > 100 | > 100 | > 100 | > 100 | > 100 | 
10 | CC(C)CCN=c1cc2n(-c3ccc(Cl)cc3)c3ccccc3nc-2cc1Nc1ccc(Cl)cc1 | 31 | > 91 | 32.1 | 48.5 | 26.5 | 18.9 | 10.9 | 17.9 | 15.6 | > 91.4 | > 56.4 | 19.8 | > 67.6 | 23.2 | 11.1 | 20.7 | 26.1 | 20.4 | 33.7 | 
11 | Oc1ccc2ccccc2c1N=Nc1ccc(F)cc1 | > 100 | > 100 | > 100 | > 100 | > 100 | > 100 | > 100 | > 100 | > 100 | > 100 | > 100 | > 100 | > 100 | > 100 | > 100 |  | > 100 | > 100 | > 100 | 
12 | O=C(NCCCNC(=O)c1ccc2cc(O)c(O)cc2c1)c1ccc2cc(O)c(O)cc2c1 | > 100 | 66.3 | 35.6 | > 100 | > 100 | > 100 | 99.7 | > 100 | > 100 | > 100 | > 100 | 81.2 | > 100 | > 100 | 59.7 | 57.8 | > 100 | 42.7 | > 100 | 
13 | CC[N+](C)(CC)Cc1ccccc1[N+](=O)[O-] | > 100 | > 100 | > 100 | > 100 | > 100 | > 100 | > 100 | > 100 | > 100 | > 100 | > 100 | > 100 | > 100 | > 100 | > 100 | > 100 | > 100 | > 100 | > 100 | 
14 | COc1ccc2c(c1)CCCc1cn[nH]c1-2 | > 100 | > 100 | > 100 | > 100 | > 100 | > 100 | > 100 | > 100 | > 100 | > 100 | > 100 | > 100 | > 100 | > 100 | > 100 | > 100 | > 100 | > 100 | > 100 | 
